From ChEMBL document CHEMBL4477252, “Optimization of microtubule affinity regulating kinase (MARK) inhibitors with improved physical properties” (Bioorg Med Chem Lett, 2016) come the findings set out here.

In series [1] the target is RAC-alpha serine/threonine-protein kinase (Homo sapiens, UniProt P31749). Kind of series: Inhibition of full-length recombinant human His-tagged AKT1-alpha expressed in baculovirus expression system by Z'-LYTE assay.
The target of series [2] is T1, Testis-specific serine/threonine-protein kinase 1 (Homo sapiens, UniProt Q9BXA7).
T1 sequence (Q9BXA7 whole entry): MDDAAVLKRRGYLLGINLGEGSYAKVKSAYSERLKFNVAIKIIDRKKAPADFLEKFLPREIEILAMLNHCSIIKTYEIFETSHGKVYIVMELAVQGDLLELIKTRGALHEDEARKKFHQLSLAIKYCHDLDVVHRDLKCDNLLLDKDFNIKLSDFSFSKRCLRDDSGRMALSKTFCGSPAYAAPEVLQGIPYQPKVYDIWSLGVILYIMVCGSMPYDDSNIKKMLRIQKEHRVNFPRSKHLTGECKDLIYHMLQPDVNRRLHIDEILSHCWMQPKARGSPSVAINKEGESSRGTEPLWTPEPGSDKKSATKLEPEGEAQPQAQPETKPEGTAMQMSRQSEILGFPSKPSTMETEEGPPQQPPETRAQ
Put plainly: Inhibition of full-length recombinant human His-tagged STK22D expressed in baculovirus expression system by Z'-LYTE assay.

The target in series [3] is Serine/threonine-protein kinase pim-1 (Homo sapiens, UniProt P11309). Put plainly: Inhibition of full-length recombinant human His-tagged PIM1 expressed in baculovirus expression system by Z'-LYTE assay.
Serine/threonine-protein kinase pim-1, sequence (P11309 whole entry, the tested form may be a part): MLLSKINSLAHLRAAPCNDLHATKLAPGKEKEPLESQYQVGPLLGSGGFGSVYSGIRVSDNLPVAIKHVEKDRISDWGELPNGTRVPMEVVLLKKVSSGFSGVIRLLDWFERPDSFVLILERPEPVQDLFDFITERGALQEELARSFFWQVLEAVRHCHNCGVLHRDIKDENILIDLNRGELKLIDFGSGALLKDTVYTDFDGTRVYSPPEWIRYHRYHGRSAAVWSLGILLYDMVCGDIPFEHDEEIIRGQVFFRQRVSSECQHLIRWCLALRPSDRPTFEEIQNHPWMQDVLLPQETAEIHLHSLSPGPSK
A further series concerns the target Insulin receptor (Homo sapiens, UniProt P06213). Put plainly: Inhibition of recombinant human GST-tagged cytoplasmic INSR (1011 to 1382 residues) expressed in baculovirus expression system by Z'-LYTE assay.
Series [4] deals with T2, Tyrosine-protein kinase ITK/TSK (Homo sapiens, UniProt Q08881).
T2 sequence (Q08881 whole entry): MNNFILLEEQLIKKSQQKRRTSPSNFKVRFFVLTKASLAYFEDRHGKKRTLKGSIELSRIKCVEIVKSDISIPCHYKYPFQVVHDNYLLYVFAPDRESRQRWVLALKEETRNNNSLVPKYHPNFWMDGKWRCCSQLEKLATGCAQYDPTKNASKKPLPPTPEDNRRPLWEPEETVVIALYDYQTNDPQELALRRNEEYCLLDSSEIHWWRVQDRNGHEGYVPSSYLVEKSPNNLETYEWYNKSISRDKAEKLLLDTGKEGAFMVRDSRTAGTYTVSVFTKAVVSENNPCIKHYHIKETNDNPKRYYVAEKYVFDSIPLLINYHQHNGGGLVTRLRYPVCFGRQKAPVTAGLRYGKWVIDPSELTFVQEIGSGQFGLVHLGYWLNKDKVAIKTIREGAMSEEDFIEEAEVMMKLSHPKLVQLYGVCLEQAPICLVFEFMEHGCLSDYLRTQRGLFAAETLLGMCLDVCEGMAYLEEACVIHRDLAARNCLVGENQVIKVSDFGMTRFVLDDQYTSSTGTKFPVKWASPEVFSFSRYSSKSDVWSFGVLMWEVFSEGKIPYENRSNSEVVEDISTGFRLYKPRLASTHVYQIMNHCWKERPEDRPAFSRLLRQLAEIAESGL
Kind of series: Inhibition of full-length recombinant human GST-tagged ITK expressed in baculovirus expression system by Z'-LYTE assay.

The target in series [5] is Tyrosine-protein kinase SYK (Homo sapiens, UniProt P43405). Kind of series: Inhibition of full-length recombinant human N-terminal GST-tagged cytoplasmic SYK expressed in baculovirus expression system by Z'-LYTE assay.
Series [6] can be described thus: Oral bioavailability in Sprague-Dawley rat at 5 mL/kg administered through gastric gavage measured after 24 hrs by LC-MS/MS analysis. Particulars: in vivo. The series is classed as ADME, organism-based.
The target in series [7] is Proto-oncogene tyrosine-protein kinase Src (Homo sapiens, UniProt P12931). Put plainly: Inhibition of full-length recombinant human His-tagged SRC expressed in baculovirus expression system by Adapta assay.
Proto-oncogene tyrosine-protein kinase Src, sequence (P12931 2-536 limits assumed): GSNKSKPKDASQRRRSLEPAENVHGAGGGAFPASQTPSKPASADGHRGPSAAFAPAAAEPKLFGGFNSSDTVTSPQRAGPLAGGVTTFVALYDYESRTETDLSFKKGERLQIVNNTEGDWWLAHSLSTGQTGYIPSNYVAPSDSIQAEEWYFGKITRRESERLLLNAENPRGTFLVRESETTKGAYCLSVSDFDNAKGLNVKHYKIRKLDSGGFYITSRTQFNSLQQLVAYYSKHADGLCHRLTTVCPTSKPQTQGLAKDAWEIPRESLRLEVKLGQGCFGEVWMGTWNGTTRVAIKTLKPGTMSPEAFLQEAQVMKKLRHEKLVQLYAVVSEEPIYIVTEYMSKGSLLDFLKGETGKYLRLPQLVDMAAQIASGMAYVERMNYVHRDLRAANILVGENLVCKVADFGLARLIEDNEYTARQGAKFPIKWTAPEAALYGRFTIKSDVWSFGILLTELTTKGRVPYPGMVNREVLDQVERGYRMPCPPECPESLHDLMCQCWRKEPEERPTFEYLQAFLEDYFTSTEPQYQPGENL
Series [8] has as its target MDR1 (ABCB1, P-glycoprotein) (Rattus norvegicus, UniProt P43245). Put plainly: Substrate activity at rat MDR1 expressed in LLC-PK1 cells assessed as efflux ratio of permeability across basolateral to apical over apical to basolateral side at 5 uM. The series is classed as ADME, cell-based.
Series [9] in a line: Inhibition of full-length recombinant human GST-tagged PKG2 expressed in baculovirus expression system by Z'-LYTE assay.
Series [10] in a line: Solubility of the compound at pH 2. The series is classed as physicochemical. The note with it: buffer.
Series [11] is described as follows: Volume of distribution in Beagle dog at 0.5 mL/kg, iv administered through catheter or 5 mL/kg, administered through gastric gavage measured after 24 hrs by LC-MS/MS analysis. The class given is ADME, organism-based, Canis lupus familiaris. The note with it: in vivo.
Series [12] can be described thus: Solubility of the compound at pH 7. Particulars: buffer. The series is classed as physicochemical.
Series [13] in a line: Half life in Sprague-Dawley rat at 1 mL/kg, iv administered through catheter measured after 24 hrs by LC-MS/MS analysis. The class given is ADME, organism-based. The note with it: in vivo.
The nature of series [14]: Clearance in Beagle dog at 0.5 mL/kg, iv administered through catheter measured after 24 hrs by LC-MS/MS analysis. The class given is ADME, organism-based, Canis lupus familiaris. The note with it: in vivo.
Series [15] in a line: Half life in Beagle dog at 0.5 mL/kg, iv administered through catheter or 5 mL/kg, administered through gastric gavage measured after 24 hrs by LC-MS/MS analysis. The series is classed as ADME, organism-based, Canis lupus familiaris. Particulars: in vivo.

Each structure is given as a SMILES string. ≈ marks a conversion by molar mass, not a printed value.

RAC-alpha serine/threonine-protein kinase, sequence (P31749 whole entry): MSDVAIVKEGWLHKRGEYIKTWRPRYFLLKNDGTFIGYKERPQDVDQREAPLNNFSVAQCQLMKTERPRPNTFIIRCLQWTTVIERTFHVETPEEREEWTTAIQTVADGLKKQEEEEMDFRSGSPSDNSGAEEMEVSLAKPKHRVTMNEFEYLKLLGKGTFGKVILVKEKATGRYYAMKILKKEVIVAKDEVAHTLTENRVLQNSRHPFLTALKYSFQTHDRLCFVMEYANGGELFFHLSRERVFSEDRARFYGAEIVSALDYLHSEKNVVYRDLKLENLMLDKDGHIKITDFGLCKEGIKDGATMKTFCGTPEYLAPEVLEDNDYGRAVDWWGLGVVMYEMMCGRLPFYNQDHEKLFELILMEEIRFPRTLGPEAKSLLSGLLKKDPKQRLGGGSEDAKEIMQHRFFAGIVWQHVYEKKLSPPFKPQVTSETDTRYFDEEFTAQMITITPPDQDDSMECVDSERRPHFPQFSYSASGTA
Insulin receptor, sequence (P06213 28-758 limits assumed): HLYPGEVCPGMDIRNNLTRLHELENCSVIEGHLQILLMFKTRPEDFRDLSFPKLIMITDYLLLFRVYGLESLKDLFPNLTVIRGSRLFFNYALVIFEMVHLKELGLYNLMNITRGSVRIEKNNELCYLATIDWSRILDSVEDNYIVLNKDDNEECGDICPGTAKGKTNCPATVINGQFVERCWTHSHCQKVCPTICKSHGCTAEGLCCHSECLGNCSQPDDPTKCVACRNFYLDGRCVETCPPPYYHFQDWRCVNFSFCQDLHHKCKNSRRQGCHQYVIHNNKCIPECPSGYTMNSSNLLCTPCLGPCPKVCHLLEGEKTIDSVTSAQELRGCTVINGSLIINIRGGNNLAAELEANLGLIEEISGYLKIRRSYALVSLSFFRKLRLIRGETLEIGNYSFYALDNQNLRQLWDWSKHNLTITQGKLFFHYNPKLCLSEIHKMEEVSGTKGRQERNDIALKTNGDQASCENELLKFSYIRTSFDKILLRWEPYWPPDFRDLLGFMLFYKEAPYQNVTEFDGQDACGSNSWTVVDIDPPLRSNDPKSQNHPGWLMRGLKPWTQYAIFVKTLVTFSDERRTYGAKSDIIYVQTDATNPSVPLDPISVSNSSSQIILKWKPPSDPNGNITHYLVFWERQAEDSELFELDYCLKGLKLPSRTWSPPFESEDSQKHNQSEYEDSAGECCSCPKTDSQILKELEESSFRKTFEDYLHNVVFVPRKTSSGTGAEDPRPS
Insulin receptor, sequence (P06213 763-1382 limits assumed): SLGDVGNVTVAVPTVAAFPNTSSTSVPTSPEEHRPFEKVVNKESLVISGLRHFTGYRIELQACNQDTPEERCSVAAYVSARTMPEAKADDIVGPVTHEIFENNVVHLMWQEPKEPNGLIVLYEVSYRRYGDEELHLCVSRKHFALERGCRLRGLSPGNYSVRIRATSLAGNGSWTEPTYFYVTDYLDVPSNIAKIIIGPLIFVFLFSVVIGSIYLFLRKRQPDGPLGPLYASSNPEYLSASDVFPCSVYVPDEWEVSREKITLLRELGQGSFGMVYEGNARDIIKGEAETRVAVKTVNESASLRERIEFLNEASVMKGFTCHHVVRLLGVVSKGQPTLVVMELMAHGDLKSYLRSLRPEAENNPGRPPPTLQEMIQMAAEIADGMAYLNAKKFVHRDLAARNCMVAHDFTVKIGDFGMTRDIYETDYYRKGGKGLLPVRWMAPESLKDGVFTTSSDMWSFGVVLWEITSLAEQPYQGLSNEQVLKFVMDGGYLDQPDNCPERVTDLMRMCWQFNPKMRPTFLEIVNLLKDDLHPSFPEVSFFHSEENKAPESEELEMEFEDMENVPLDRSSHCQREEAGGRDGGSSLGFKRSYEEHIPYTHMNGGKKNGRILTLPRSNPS
MDR1 (ABCB1, P-glycoprotein), sequence (P43245 whole entry): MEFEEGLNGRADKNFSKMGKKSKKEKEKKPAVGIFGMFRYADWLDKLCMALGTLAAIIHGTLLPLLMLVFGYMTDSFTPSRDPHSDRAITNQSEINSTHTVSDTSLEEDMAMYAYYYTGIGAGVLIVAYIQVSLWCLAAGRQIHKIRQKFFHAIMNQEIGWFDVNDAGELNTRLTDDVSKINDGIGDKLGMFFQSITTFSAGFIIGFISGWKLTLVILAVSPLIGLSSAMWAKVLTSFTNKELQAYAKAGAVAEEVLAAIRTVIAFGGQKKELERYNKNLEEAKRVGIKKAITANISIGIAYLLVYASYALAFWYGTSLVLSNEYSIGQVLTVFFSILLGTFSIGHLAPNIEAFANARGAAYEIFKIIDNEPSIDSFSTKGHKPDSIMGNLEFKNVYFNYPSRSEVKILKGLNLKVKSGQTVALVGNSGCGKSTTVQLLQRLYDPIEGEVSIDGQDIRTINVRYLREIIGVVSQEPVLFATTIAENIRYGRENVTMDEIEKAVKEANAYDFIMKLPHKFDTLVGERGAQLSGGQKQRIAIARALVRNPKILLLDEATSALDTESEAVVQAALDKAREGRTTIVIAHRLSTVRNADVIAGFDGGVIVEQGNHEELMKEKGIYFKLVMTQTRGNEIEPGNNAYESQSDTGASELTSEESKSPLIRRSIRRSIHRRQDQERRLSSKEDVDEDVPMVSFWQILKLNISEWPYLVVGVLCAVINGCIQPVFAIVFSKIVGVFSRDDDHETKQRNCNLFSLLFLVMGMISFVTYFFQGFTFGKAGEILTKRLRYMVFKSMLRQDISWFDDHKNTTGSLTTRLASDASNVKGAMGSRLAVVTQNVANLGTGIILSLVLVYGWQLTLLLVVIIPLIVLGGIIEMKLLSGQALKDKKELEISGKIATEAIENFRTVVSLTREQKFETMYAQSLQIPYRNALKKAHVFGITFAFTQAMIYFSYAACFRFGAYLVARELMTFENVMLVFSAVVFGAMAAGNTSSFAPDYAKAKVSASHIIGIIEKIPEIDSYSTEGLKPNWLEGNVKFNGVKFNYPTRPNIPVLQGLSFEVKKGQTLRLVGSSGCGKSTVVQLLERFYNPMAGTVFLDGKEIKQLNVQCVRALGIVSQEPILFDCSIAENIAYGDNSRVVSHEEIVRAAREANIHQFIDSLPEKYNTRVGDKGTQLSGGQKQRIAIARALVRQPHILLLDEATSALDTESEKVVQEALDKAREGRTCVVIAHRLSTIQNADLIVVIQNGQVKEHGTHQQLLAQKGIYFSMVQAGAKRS

For `O=C(NCC(F)(F)F)c1cc(-c2cnn3cc(-c4ccc(OCCN5CCCCC5)cc4)cnc23)cs1`, the IC50 in series [1] was 24000 nM; in series [2], less than 10 nM; in series [3], 590 nM; on Insulin receptor, 55000 nM; in [4] it was 26 nM; in series [5] it was 440 nM. Further, in [7], the IC50 turned out to be 37 nM. Moreover, in series [6], the bioavailability came out at 46%.

As for `Cn1cc(-c2cnc3c(-c4csc(C(=O)NCC(F)(F)F)c4)cnn3c2)cn1`, the half-maximal inhibitory concentration (IC50) in [1] is more than 100000 nM; in series [2], 20 nM; in series [3], 9900 nM; in series [9], 480 nM; on Insulin receptor it was more than 100000 nM; in series [4], 94 nM. Also, the IC50 amounted to 750 nM in [5] and 42 nM in series [7]. The efflux ratio at 5 µM in series [8] turned out to be 1.9. Besides, the bioavailability in series [6] amounted to 53%. Further, the solubility in series [10] is less than 3 µM.

In turn, `Cc1sc(C(=O)N[C@@H]2[C@H](N)CCCC2(F)F)cc1-c1cnn2cc(Cl)cnc12` returned a Vd in series [11] of 2.3 L/kg. Also, the IC50 is 870 nM in [1]; less than 10 nM in series [2]; 1600 nM in series [3]; 990 nM in series [9]; more than 100000 nM at Insulin receptor; 4200 nM in series [4]. In addition, the IC50 in series [5] amounted to 12000 nM; in series [7], 8100 nM. The solubility worked out at 114 µM (≈ 48.6 µg/mL) in series [12] and 206 µM (≈ 87.7 µg/mL) in series [10]. For the same molecule, the results for the half-life in series [13] and in series [15] were 42 min and 60 min, respectively. In addition, the clearance in series [14] was found to be 27 mL/min/kg.

With `Cn1cc(-c2cnc3c(-c4csc(C(=O)N[C@@H]5CCCC[C@@H]5N)c4)cnn3c2)cn1` (racemic), the IC50 in series [1] was 80 nM; in series [2] it was less than 1 nM; in series [3] it was 2800 nM; on Insulin receptor it was more than 10000 nM; in series [4] it was 26 nM; in series [5], 42 nM. Further, in series [7], the IC50 is 3 nM. In [12], the concentration in solution (solubility) came to 68 µM (≈ 28.7 µg/mL). The efflux ratio at 5 µM in [8] came out at 54.
